# From US20230142353A1, “IMPLANT DEVICES AND METHODS FOR TREATMENT OF CERVICAL CANCER” (Washington University, priority 2020, published 2023)
# Tests used:
# [1] = tested on: cervical cancer cell lines C33A, Me-180, HT3, Caski, and SiHa; assay: In vitro cytotoxicity of Cis-Pt, MTT assay; type: cell-based, Human; details: average dose-response curve of 5 cell lines, 48 hours, read-out: average IC50 (Av-IC50)
# Procedure: Human cervical cancer cell lines C33A, Me-180, HT3, Caski, and SiHa were purchased from American Type Culture Collection (ATCC; Manassas, Va.). Cell lines were cultured in Dulbecco's Modified Eagle Medium (DMEM; Gibco Life Technologies, Grand Island, N.Y.) supplemented with 10% fetal bovine serum (FBS; Gibco Life Technologies), 2 mmol/L of L-glutamine, 100 ng/mL penicillin, and 100 ng/mL streptomycin (Corning CellGro, Mediatech, Manassas, Va.). All cells were cultured at 37° C., 5% CO2 in a NuAire water jacket incubator (Plymouth, Minn.).
# The in vitro cytotoxicity on cervical cancer cell lines was assessed using an MTT assay (Sigma Aldrich). Briefly, cells were seeded at 5×10^3 cells/well in 96-well plates overnight at 37° C. to promote their adhesion to the plates. […] After 48 hours of treatment, MTT solution was added to the cells for 3 hours, and then the stop solution was added to dissolve the formazan crystals overnight. The wells were read with SpectraMax i3 multimode microplate spectrophotometer (Molecular Devices, San Jose, Calif.) at 570 nm. Dose-response curves were graphed and the average dose-response curve was calculated.
# [2] = tested on: Cervical cancer cell lines; assay: Pt content in cell lines in vitro (ICP-MS); type: cell-based, Human; details: treated at 6 μM (Av-IC50) for 48 hours, average
# Procedure: Cervical cancer cell lines (10×10^6 cells) were treated Cis-Pt at Av-IC50 for 48 hours. Cells were then lifted with trypsin (0.05% Trypsin-EDTA, Gibco Life Technologies), spun down, and washed 3 times, to eliminate free Cis-Pt. Cell pellets were then weighed, digested, and analyzed by ICP-MS, and the average Pt content in cell lines in vitro (Av-Pt-in vitro) was calculated.
# [3] = Pt accumulation in cervical cancer patient biopsies (ICP-MS); type: in vivo, Human; details: for drug accumulation in patient tissues lower than in cell lines at in vitro efficacious concentration: patient biopsies vs cell lines treated at 6 μM
# Procedure: Patients with biopsy-proven cervical carcinoma were enrolled into an institutional review board-approved prospective study in which cervical tumor biopsies were obtained 3 weeks into chemoradiation treatment. All patients were treated with definitive chemoradiation treatment, which consisted of external beam radiation therapy to the pelvis (50.4 Gy) 4 days per week using intensity-modulated radiation therapy with a split-pelvis technique with 6 weekly brachytherapy boosts to a dose of 6.5 Gy per fraction to point A, starting at week 1. Concurrent with radiation therapy, all patients received the conventional treatment of cisplatin (40 mg/m^2, intravenous [IV]) weekly. Cervical tumor samples were collected immediately before delivery of the third brachytherapy treatment, approximately half-way through the treatment course. Samples were collected, immediately snap-frozen, and processed for storage. The average time between cisplatin administration and biopsy was 4.5 days (range, 1-17 days).
# To determine tissue Cis-Pt accumulation within the patient biopsy samples, tissue digestion and inductively coupled plasma mass spectrometry (ICP-MS) were performed to quantify the levels of Pt in the samples. Briefly, biopsy samples were thawed and precisely weighed (±0.1 mg) before being digested in concentrated nitric acid (HNO3) overnight. Samples were then diluted with deionized water to a final 5% HNO3 (v/v) and digested using a microwave digestion system (MARS 6 Microwave Digestion System, CEM, Matthews, N.C.) at 200° C. for 45 minutes. Samples were analyzed with ICP-MS (ELAN DRC II ICP-MS, Perkin Elmer, Inc, Waltham, Mass.) for Pt content, against a calibration curve of Pt standards of 0, 0.1, 1, 10, 50, 100, and 250 parts per billion (ppb) in 5% HNO3, which were prepared from 10 parts per million Pt standard solution (Inorganic Ventures, Christiansburg, Va.). Terbium was used as an internal standard throughout the ICP-MS analysis. The average Pt content in clinical biopsies (Av-Pt-Clin) was calculated.
# […]
# [4] = tested on: Cervical cancer cell lines; assay: In vitro radio-sensitization with Cis-Pt, MTT assay and combination index; type: cell-based, Human; details: for sensitization to radiation therapy: 6 Gy
# Procedure: Clinically relevant Pt concentration (Clin-conc) was estimated as a fraction of Av-IC50 based on the relative difference between tissue Pt contents in clinical biopsies and in vitro: Av-IC50×(Av-Pt-Clin/Av-Pt-in vitro). The radiosensitizing effect of Cis-Pt on cervical cancer cell lines was assessed using an MTT assay. Briefly, cells were treated with or without Cis-Pt at Av-IC50 (6 μM) or Clin-conc (1 μM) for a duration of 24 or 48 hours. Additionally, cells were also treated with or without a single-fraction dose of 6 Gy (4 Gy/min) using an RS2000 160 kV x-ray Irradiator equipped with a 0.3-mm copper filter (Rad Source Technologies Inc, Buford, Ga.), at the beginning of the treatment. At the end of each treatment, an MTT assay was performed to determine the survival of the cells.
# The combination effect between Cis-Pt treatment and radiation was evaluated by calculating the combination index (CI) using the formula: CI=(Ea×Eb)/Eab, where Ea and Eb are the individual effects (fractional killing, 0≤Ei≤1) and Eab is the combination effect of drugs a and b. This index represents the ratio between the predicted combination effect and the actual combination effect. When the CI=1, the effect is additive. When the CI<1, the effect is supra-additive; when CI>1, the effect is sub-additive.
# [5] = tested on: C33A cervical cancer cells; assay: In vitro clonogenic survival; type: cell-based, Human; details: for clonogenic growth: with or without radiation
# Procedure: C33A cervical cancer cells (0.5×10^6 cells/condition) were plated in T25 flasks 24 hours before treatment. Cells were treated with Cis-Pt at 0, 1, 3, or 6 μM for 4 hours, and subjected to irradiation at 0 or 6 Gy (4 Gy/min). Cells were then lifted with trypsin, counted, and were plated in triplicates for each condition at 500 cells per well in 24 well plates. After 12 days of culture, cells were fixed and stained with 0.5% Crystal Violet (Sigma Aldrich) in methanol, washed, and dried.
# [6] = In vivo biodistribution of Pt in subcutaneous C33A tumor model (ICP-MS); set-up: species or system athymic nude mice; details: systemic (IV injection) delivery, 1 mg/kg, 24 hours
# [7] = tested on: C33A subcutaneous cervical tumors; assay: In vivo efficacy, tumor progression with or without radiation; set-up: species or system athymic nude mice
# Procedure: C33A cells (2×10^6/mouse) were suspended in 50% Matrigel and 50% DMEM media. The suspended C33A cells were injected subcutaneously around the lower back of 42 female athymic nude mice that were 6 to 8 weeks old. Tumor progression was confirmed after 3 weeks, and mice were then randomized into 6 groups (n=7) and treated with: (1) tail vein injection of PBS (Vehicle-IV), (2) Cis-Pt-IV at 1 mg/kg, (3) Cis-Pt-Implant at 1 mg Cis-Pt/kg, (4) Vehicle-IV+radiation (5 days×2 Gy/day), (5) Cis-Pt-IV+radiation, and (6) Cis-Pt-Implant+radiation.
# In a separate experiment, the effect of a fractionated radiation dose was compared to a single high dose of radiation administered concurrently with Cis-Pt-Implants. C33A cells (2×10^6/mouse) were suspended in 50% Matrigel and 50% DMEM media. The suspended C33A cells were injected subcutaneously around the lower back of 14 female athymic nude mice that were 6 to 8 weeks old (Charles Rivers Laboratories). Tumor progression was confirmed after 3 weeks, mice were then intratumorally implanted with Cis-Pt-loaded implant (1 mg/kg) and randomized into 2 groups (n=7), treated with: (1) fractionated radiation (5 days×2 Gy/d), mimicking external beam radiation; or (2) a single high dose of 8 Gy, mimicking brachytherapy.
# For the in vivo experiments above, tumor progression was monitored by measurement of tumor sizes in all treatment groups every 2 days. […]
# [8] = 24 hours after IV injection of 100 mg/m^2; cited from earlier work
structure (smiles),measurement,setting,value
"N.N.[Cl][Pt][Cl] [Cis-Pt, cis-Diammineplatinum(II) dichloride]",IC50,[1],6 µM
same,Pt levels in cell lines,[2],about 2560 ng Pt/g tissue
same,Pt levels detected in patient tissues,"[3]; 40 mg/m^2 IV weekly, biopsies about 3 weeks into chemoradiation, average of 20",about 430 ng Pt/g tissue
same,influence of time of biopsy since last injection on Pt level within the tumor,[3]; 1-17 days after injection,not a major factor
same,drug accumulation in patient tissues lower than in cell lines at in vitro efficacious concentration,[3],about 6 fold
same,drug accumulation in patient tissues lower than in cell lines at in vitro efficacious concentration,[3]; listed as Cisplatin,6 fold
same,sensitization to radiation therapy,[4]; 1 μM Cis-Pt,limited radio-sensitization
same,combination effect of Cis-Pt and radiation by CI,[4]; 1 μM treatment,sub-additive
same,sensitization to radiation therapy,[4]; 6 μM Cis-Pt,significant sensitization to radiation therapy in all cell lines
same,combination effect of Cis-Pt and radiation by CI,[4]; 6 μM treatment,supra-additive
same,clonogenic cell survival,"[5]; 1 μM, alone or in combination with radiation (6 Gy)",unable to limit clonogenic cell survival
same,clonogenic growth,[5]; 3 μM,significantly restricted clonogenic growth
same,clonogenic growth,[5]; 6 μM,significantly restricted clonogenic growth
same,Pt concentration in the tumor,[6],53 ng Pt/g tissue
same,treatment outcome with fractionated radiation,[7]; systemic delivery 1 mg/kg + 2 Gy×5 days,improved treatment outcome compared with radiation alone
same,tumor progression,"[7]; systemic delivery (IV) 1 mg/kg, without radiation",did not alter tumor progression
same,intratumoral platinum (Pt) concentration,[8],0.9 ng/mg
